Results reported in a compilation of properties of binary mixtures (doi:10.1021/acs.jced.0c01028).

Assay: xn = mol fraction of the nth substance listed
Conditions: 81.5 kPa

CCCC[n+]1ccn(C)c1.N#C[S-] + CCCCC(C)O
x1 = 1
Conditions | speed of sound [m/s]
298.15 K | 1762
308.15 K | 1738
318.15 K | 1714
328.15 K | 1691
338.15 K | 1668

CCCCC(C)O (configuration not stated) + CCCC[n+]1ccn(C)c1.N#C[S-]
speed of sound [m/s]
Conditions | x2 = 0 | x2 = 0.1011 | x2 = 0.2003 | x2 = 0.2992 | x2 = 0.3988 | x2 = 0.4964 | x2 = 0.6029 | x2 = 0.6993 | x2 = 0.7996 | x2 = 0.8987
288.15 K | 1299 | – | 1397 | 1448 | 1497 | 1549 | 1601 | 1653 | – | 1748
298.15 K | – | 1316 | 1366 | – | 1469 | 1521 | 1574 | 1628 | 1673 | 1724
308.15 K | 1226 | 1283 | 1335 | 1389 | 1441 | 1494 | 1549 | 1603 | – | 1700
318.15 K | 1189 | – | 1304 | – | – | 1471 | 1530 | 1581 | 1632 | 1676
328.15 K | 1153 | – | – | 1331 | 1385 | 1441 | 1498 | 1554 | 1601 | 1653
338.15 K | 1117 | 1183 | – | 1302 | 1357 | – | 1474 | – | 1577 | 1630
